Data on 69 molecules can be found in ChEMBL document CHEMBL4304757, “Synthetic heterocyclic candidates as promising α-glucosidase inhibitors: An overview” (Eur J Med Chem, 2019).

The structures appear in SMILES notation.

Target in one assay: not listed separately
The experiment in a line: Inhibition of yeast alpha-glucosidase using p-nitrophenyl-alpha-d-glucopyranoside as substrate preincubated for 10 mins followed by substrate addition measured after 30 mins. Details: species or system Saccharomyces cerevisiae.
The molecule `Cc1cc(C)cc(-n2c(-c3cn(-c4ccccc4)nc3-c3cc4ccccc4oc3=O)nc(-c3ccccc3)c2-c2ccccc2)c1` came in with an IC50 of 2.5 to 46 µM.
`Cc1cc2nc(-c3ccc(C(=O)N/N=C/c4ccncc4)cc3)[nH]c2cc1C`: the IC50 was in the range of 8.4 to 179 µM.
On the same count and under the same terms, for `Cc1cc2nc(-c3ccc(C(=O)N/N=C/c4cccc(O)c4O)cc3)[nH]c2cc1C` the value was 8.4 to 9.9 µM; for `Cc1cc2nc(-c3ccc(C(=O)NNC(=S)Nc4ccc(Br)cc4)cc3)[nH]c2cc1C`, 35 to 297 µM.
For `Cc1cc2nc(-c3ccc(C(=O)N/N=C/c4cccnc4)cc3)[nH]c2cc1C`, the IC50 is 8.4 to 179 µM.
On the same count and under the same terms, the value for `Cc1cc2nc(-c3ccc(C(=O)N/N=C/c4ccccn4)cc3)[nH]c2cc1C` was 8.4 to 179 µM; that for `Cc1cc2nc(-c3ccc(C(=O)NNC(=S)Nc4ccc(Cl)cc4)cc3)[nH]c2cc1C` was 35 to 297 µM.
`O=[N+]([O-])c1ccc(-c2nn(-c3ccccc3)cc2-c2nc(-c3ccccc3)c(-c3ccccc3)[nH]2)cc1` registered an IC50 of 2.7 to 23 µM.
Same read-out and setting: for `Cc1cccc(NC(=S)NNC(=O)c2ccc(-c3nc4cc(C)c(C)cc4[nH]3)cc2)c1` the value was 35 to 297 µM.
Same read-out and setting: for `Clc1ccc(-c2nn(-c3ccccc3)cc2-c2nc(-c3ccccc3)c(-c3ccccc3)[nH]2)cc1` the value was 2.7 to 23 µM; for `Cc1cc2nc(-c3ccc(C(=O)NNC(=S)Nc4ccc(F)cc4)cc3)[nH]c2cc1C`, 35 to 297 µM; for `O=c1oc2ccc(Br)cc2cc1-c1nn(-c2ccccc2)cc1-c1nc(-c2ccccc2)c(-c2ccccc2)n1-c1ccc(Br)cc1`, 2.5 to 46 µM.
Same read-out and setting: for `Cc1cc2nc(-c3ccc(C(=O)NNC(=S)Nc4ccccc4Br)cc3)[nH]c2cc1C` the value was 35 to 297 µM.
As to `COc1ccc(-c2nn(-c3ccccc3)cc2-c2nc(-c3ccccc3)c(-c3ccccc3)[nH]2)cc1`, the IC50 was 2.7 to 23 µM.
Regarding `O=c1oc2ccccc2cc1-c1nn(-c2ccccc2)cc1-c1nc(-c2ccccc2)c(-c2ccccc2)[nH]1`, inhibition was half-maximal at 2.7 µM (IC50).
On the same count and under the same terms, the value for `COc1ccc(-n2c(-c3cn(-c4ccccc4)nc3-c3cc4ccccc4oc3=O)nc(-c3ccccc3)c2-c2ccccc2)cc1` was 2.5 to 46 µM; that for `Cc1cc2nc(-c3ccc(C(=O)NNC(=S)Nc4ccc(Cl)c(Cl)c4)cc3)[nH]c2cc1C` was 35 to 297 µM; that for `Cc1ccc(NC(=S)NNC(=O)c2ccc(-c3nc4cc(C)c(C)cc4[nH]3)cc2)cc1` was 35 to 297 µM.
Same read-out and setting: for `Cc1cc2nc(-c3ccc(C(=O)N/N=C/c4cc(O)c(O)c(O)c4)cc3)[nH]c2cc1C` the value was 8.4 µM.
The same measure, in the same setting: the value for `COc1ccc(/C=N/NC(=O)c2ccc(-c3nc4cc(C)c(C)cc4[nH]3)cc2)cc1O` was 8.4 to 179 µM.
For the molecule `Cc1cc2nc(-c3ccc(C(=O)NNC(=S)Nc4ccc([N+](=O)[O-])cc4)cc3)[nH]c2cc1C`, half-maximal inhibition (IC50) was put at 35 µM.
The molecule `c1ccc(-c2nn(-c3ccccc3)cc2-c2nc(-c3ccccc3)c(-c3ccccc3)[nH]2)cc1` returned an IC50 of 2.7 to 23 µM.
For the molecule `COc1cccc(/C=N/NC(=O)c2ccc(-c3nc4cc(C)c(C)cc4[nH]3)cc2)c1`, the IC50 is 8.4 to 179 µM.
`CCCn1c(-c2cn(-c3ccccc3)nc2-c2cc3ccccc3oc2=O)nc(-c2ccccc2)c1-c1ccccc1` had an IC50 of 2.5 to 46 µM.
For `Cc1cc2nc(-c3ccc(C(=O)N/N=C/c4ccc([N+](=O)[O-])cc4)cc3)[nH]c2cc1C`, the IC50 was 8.4 to 179 µM.

The next assay deals with T1, Alpha glucosidase (Homo sapiens, UniProt O43451+P10253+P14410+Q2M2H8). The experiment in a line: Inhibition of alpha-glucosidase (unknown origin) using p-nitrophenyl-alpha-d-glucopyranoside as substrate preincubated for 15 mins followed by substrate addition measured after 30 mins by spectrophotometric analysis. Format: protein assay.
Turning to `Fc1ccccc1Cn1cc(CSc2nc3cc(Cl)ccc3s2)nn1`, the IC50 is 20 to 61 µM.
Same read-out and setting: the value for `Fc1cccc(Cn2cc(CSc3nc4ccccc4s3)nn2)c1` was 20 to 61 µM.
Same read-out and setting: for `Clc1ccc2sc(SCc3cn(Cc4ccc(Br)cc4)nn3)nc2c1` the value was 20 to 61 µM.
Still for that read-out and setting: for `Clc1ccccc1CSc1nc(-c2ccc(Br)cc2)cc(-c2ccc(Br)cc2)n1` the value was 19 to 38 µM; for `Clc1ccc2sc(SCc3cn(Cc4ccccc4)nn3)nc2c1`, 20 to 61 µM.

The next assay concerns the target T1, Alpha glucosidase. Put plainly: Inhibition of alpha-glucosidase (unknown origin) using p-nitrophenyl-alpha-d-glucopyranoside as substrate preincubated for 5 mins followed by substrate addition measured after 5 mins. In kind it is protein assay.
As to `Nc1nnc(-c2cccc([N+](=O)[O-])c2)s1`, the IC50 was in the range of 2.3 to 38 µM.
Same read-out and setting: for `Cc1ccc(/C=N/NC(=O)c2cc3ccccc3oc2=O)cc1` the value was 1.1 to 36 µM; for `O=C(N/N=C/c1ccccn1)c1cc2ccccc2oc1=O`, 1.1 to 36 µM; for `Cc1cccc(/C=N/NC(=O)c2cc3ccccc3oc2=O)c1`, 1.1 to 36 µM.
In the case of `O=C(N/N=C/c1ccncc1)c1cc2ccccc2oc1=O`, the IC50 lay within 1.1 to 36 µM.
`CN(C)c1ccc(-c2nnc(N)s2)cc1` showed an IC50 of 2.3 to 38 µM.
On to `Oc1ccc(/C=N/c2nnc(-c3ccc(Cl)cc3)s2)cc1`, for which the IC50 was 2.3 µM.
`O=[N+]([O-])c1ccc(/C=N/c2nnc(-c3ccc(Cl)cc3)s2)cc1`: the IC50 was in the range of 2.3 to 25 µM.
Still for that read-out and setting: for `O=C(N/N=C/c1cccc(F)c1)c1cc2ccccc2oc1=O` the value was 1.1 to 36 µM; for `O=C(N/N=C/c1ccccc1)c1cc2ccccc2oc1=O`, 1.1 to 36 µM; for `Nc1nnc(-c2cc3ccccc3cc2O)s1`, 2.3 to 38 µM.
On the same count and under the same terms, for `O=C(N/N=C/c1ccc(F)cc1)c1cc2ccccc2oc1=O` the value was 1.1 to 36 µM; for `COc1cc(-c2nnc(/N=C/c3ccc(O)cc3)s2)ccc1OCc1ccccc1`, 2.3 to 25 µM.
Still for that read-out and setting: for `COc1ccc(O)c(/C=N/NC(=O)c2cc3ccccc3oc2=O)c1` the value was 1.1 to 36 µM; for `COc1ccc(Br)cc1/C=N/c1nnc(-c2ccc(Cl)cc2)s1`, 2.3 to 25 µM; for `Nc1nnc(-c2ccc([N+](=O)[O-])cc2)s1`, 2.3 to 38 µM.
In turn, `Clc1ccc(-c2nnc(/N=C/c3ccc(Cl)cc3Cl)s2)cc1` gave an IC50 of 2.3 to 25 µM.
The same measure, in the same setting: for `O=C(N/N=C/c1cccc(O)c1O)c1cc2ccccc2oc1=O` the value was 1.1 µM; for `Nc1nnc(-c2ccc(Cl)c(OCc3ccccc3)c2)s1`, 2.3 to 38 µM; for `Nc1nnc(-c2ccc(OCc3ccccc3)cc2)s1`, 2.3 to 38 µM.
Same read-out and setting: the value for `O=[N+]([O-])c1ccccc1/C=N/c1nnc(-c2ccc(Cl)cc2)s1` was 2.3 to 25 µM; that for `COc1ccc(/C=N/NC(=O)c2cc3ccccc3oc2=O)c(O)c1` was 1.1 to 36 µM; that for `Nc1nnc(-c2c3ccccc3cc3ccccc23)s1` was 2.3 to 38 µM.
Same read-out and setting: for `O=C(N/N=C/c1ccc([N+](=O)[O-])cc1)c1cc2ccccc2oc1=O` the value was 1.1 to 36 µM.
Consider `O=C(N/N=C/c1ccccc1[N+](=O)[O-])c1cc2ccccc2oc1=O`, for which the IC50 was 1.1 to 36 µM.
Same read-out and setting: for `Nc1nnc(-c2ccc(Cl)cc2Cl)s1` the value was 2.3 to 38 µM; for `COc1ccc(/C=N/NC(=O)c2cc3ccccc3oc2=O)cc1`, 1.1 to 36 µM; for `COc1ccc(Br)cc1-c1nnc(N)s1`, 2.3 to 38 µM.
Consider `O=[N+]([O-])c1cccc(-c2nnc(/N=C/c3ccc(Cl)cc3Cl)s2)c1`, for which the IC50 lay in the range of 2.3 to 25 µM.
The same measure, in the same setting: the value for `Nc1nnc(-c2ccc(O)cc2)s1` was 2.3 µM.
The same measure, in the same setting: for `Nc1nnc(-c2ccc(Cl)cc2)s1` the value was 2.3 to 38 µM.
Molecule `O=C(N/N=C/c1ccccc1F)c1cc2ccccc2oc1=O` yielded an IC50 of 1.1 to 36 µM.
On the same count and under the same terms, the value for `O=C(N/N=C/c1ccc(O)cc1O)c1cc2ccccc2oc1=O` was 1.1 to 36 µM; that for `COc1cccc(-c2nnc(N)s2)c1OC` was 2.3 to 38 µM; that for `O=C(N/N=C/c1ccccc1O)c1cc2ccccc2oc1=O` was 1.1 to 36 µM.
On the same count and under the same terms, for `Nc1nnc(-c2ccccc2[N+](=O)[O-])s1` the value was 2.3 to 38 µM.
On to `Cc1ccccc1/C=N/NC(=O)c1cc2ccccc2oc1=O`, for which the IC50 lay in the range of 1.1 to 36 µM.
Same read-out and setting: for `Clc1ccc(-c2nnc(/N=C/c3ccc(OCc4ccccc4)cc3)s2)cc1` the value was 2.3 to 25 µM; for `COc1ccc(Br)cc1/C=N/c1nnc(-c2cccc([N+](=O)[O-])c2)s1`, 2.3 to 25 µM.

One may read the IC50 as the midpoint of a concentration-inhibition curve. A high value points to weaker potency.
